What was measured:
Saccharomyces cerevisiae [1] = assay: Ratio of kcat to Km for Saccharomyces cerevisiae NMT D22K/D23K mutant
Saccharomyces cerevisiae [2] = assay: Ratio of kcat to Km for Saccharomyces cerevisiae NMT delta1-30 mutant
Saccharomyces cerevisiae [3] = assay: Activity of Saccharomyces cerevisiae NMT NMT delta1-30 mutant assessed as production of coenzyme A after 1 hr
Saccharomyces cerevisiae [4] = assay: Activity of Saccharomyces cerevisiae NMT NMT delta1-20 mutant assessed as production of coenzyme A after 1 hr
Saccharomyces cerevisiae [5] = assay: Activity of Saccharomyces cerevisiae NMT NMT delta1-40 mutant assessed as production of coenzyme A after 1 hr
Saccharomyces cerevisiae [6] = assay: Ratio of kcat to Km for Saccharomyces cerevisiae NMT delta1-40 mutant
Saccharomyces cerevisiae [7] = assay: Activity of Saccharomyces cerevisiae NMT D22K/D23K mutant assessed as production of coenzyme A after 1 hr
Saccharomyces cerevisiae [8] = assay: Ratio of kcat to Km for Saccharomyces cerevisiae NMT delta1-20 mutant
[9] = substrate: CC(C)C[C@H](NC(=O)CN)C(=O)N[C@@H](Cc1ccccc1)C(=O)N[C@@H](C)C(=O)N[C@@H](CO)C(=O)N[C@@H](CCCCN)C(=O)N[C@@H](CC(C)C)C(=O)N[C@@H](Cc1ccccc1)C(=O)O; assay: Activity of Saccharomyces cerevisiae NMT D106A/D108A mutant assessed as production of coenzyme A after 1 hr
[10] = substrate: CC(C)C[C@H](NC(=O)CN)C(=O)N[C@@H](Cc1ccccc1)C(=O)N[C@@H](C)C(=O)N[C@@H](CO)C(=O)N[C@@H](CCCCN)C(=O)N[C@@H](CC(C)C)C(=O)N[C@@H](Cc1ccccc1)C(=O)O; assay: Ratio of kcat to Km for Saccharomyces cerevisiae NMT D106A/D108A mutant
[11] = substrate: CC(C)C[C@H](NC(=O)CN)C(=O)N[C@@H](Cc1ccccc1)C(=O)N[C@@H](C)C(=O)N[C@@H](CO)C(=O)N[C@@H](CCCCN)C(=O)N[C@@H](CC(C)C)C(=O)N[C@@H](Cc1ccccc1)C(=O)O; assay: Activity of Saccharomyces cerevisiae NMT D22A/D23A mutant assessed as production of coenzyme A after 1 hr
[12] = substrate: CC(C)C[C@H](NC(=O)CN)C(=O)N[C@@H](Cc1ccccc1)C(=O)N[C@@H](C)C(=O)N[C@@H](CO)C(=O)N[C@@H](CCCCN)C(=O)N[C@@H](CC(C)C)C(=O)N[C@@H](Cc1ccccc1)C(=O)O; assay: Ratio of kcat to Km for Saccharomyces cerevisiae NMT D22A/D23A mutant

H-GLFASKLF-OH was tested, and the kcat/Km (Saccharomyces cerevisiae [1]) was 3.16 ×10⁴ /M/s, the kcat/Km (Saccharomyces cerevisiae [2]) was 2.43 ×10⁴ /M/s and the Km (Saccharomyces cerevisiae [3]) was 159 µM. For the same molecule, the kcat (Saccharomyces cerevisiae [3]) was 3.85 s⁻¹, the Km (Saccharomyces cerevisiae [4]) was 27.7 µM and the kcat (Saccharomyces cerevisiae [4]) was 3.58 s⁻¹. For the same molecule, the Km (Saccharomyces cerevisiae [5]) was 162 µM, the kcat (Saccharomyces cerevisiae [5]) was 4.03 s⁻¹ and the kcat/Km (Saccharomyces cerevisiae [6]) was 2.48 ×10⁴ /M/s. It also gave a Km (Saccharomyces cerevisiae [7]) of 150 µM, a kcat (Saccharomyces cerevisiae [7]) of 4.73 s⁻¹ and a kcat/Km (Saccharomyces cerevisiae [8]) of 1.29 ×10⁵ /M/s.

B1: Glycylpeptide N-tetradecanoyltransferase (Saccharomyces cerevisiae S288c), P14743 D106A,D108A (protein)
chain: MSEEDKAKKLENLLKLLQLNNDDTSKFTQEQKKAMKDHKFWRTQPVKDFDEKVVEEGPIDKPKTPEDISDKPLPLLSSFEWCSIDVDNKKQLEDVFVLLNENYVEARAAGFRFNYTKEFFNWALKSPGWKKDWHIGVRVKETQKLVAFISAIPVTLGVRGKQVPSVEINFLCVHKQLRSKRLTPVLIKEITRRVNKCDIWHALYTAGIVLPAPVSTCRYTHRPLNWKKLYEVDFTGLPDGHTEEDMIAENALPAKTKTAGLRKLKKEDIDQVFELFKRYQSRFELIQIFTKEEFEHNFIGEESLPLDKQVIFSYVVEQPDGKITDFFSFYSLPFTILNNTKYKDLGIGYLYYYATDADFQFKDRFDPKATKALKTRLCELIYDACILAKNANMDVFNALTSQDNTLFLDDLKFGPGDGFLNFYLFNYRAKPITGGLNPDNSNDIKRRSNVGVVML
With B1 the Km [9] was 38.5 µM, the kcat [9] was 2.55 s⁻¹ and the kcat/Km [10] was 6.62 ×10⁴ /M/s.

B2: Glycylpeptide N-tetradecanoyltransferase (Saccharomyces cerevisiae S288c), P14743 D22A,D23A (protein)
chain: MSEEDKAKKLENLLKLLQLNNAATSKFTQEQKKAMKDHKFWRTQPVKDFDEKVVEEGPIDKPKTPEDISDKPLPLLSSFEWCSIDVDNKKQLEDVFVLLNENYVEDRDAGFRFNYTKEFFNWALKSPGWKKDWHIGVRVKETQKLVAFISAIPVTLGVRGKQVPSVEINFLCVHKQLRSKRLTPVLIKEITRRVNKCDIWHALYTAGIVLPAPVSTCRYTHRPLNWKKLYEVDFTGLPDGHTEEDMIAENALPAKTKTAGLRKLKKEDIDQVFELFKRYQSRFELIQIFTKEEFEHNFIGEESLPLDKQVIFSYVVEQPDGKITDFFSFYSLPFTILNNTKYKDLGIGYLYYYATDADFQFKDRFDPKATKALKTRLCELIYDACILAKNANMDVFNALTSQDNTLFLDDLKFGPGDGFLNFYLFNYRAKPITGGLNPDNSNDIKRRSNVGVVML
B2 gave a Km [11] of 92.4 µM, a kcat [11] of 3.83 s⁻¹ and a kcat/Km [12] of 4.15 ×10⁴ /M/s.

Source: ChEMBL document CHEMBL1156468, “Crystal structures of Saccharomyces cerevisiae N-myristoyltransferase with bound myristoyl-CoA and inhibitors reveal the functional roles of the N-terminal region” (J Biol Chem, 2007)
